From patent US20220226397A1, “SYNERGISTIC COMBINATIONS OF ARGININE-PRODUCING BACTERIA AND/OR AMMONIA-CONSUMING BACTERIA AND CHECKPOINT INHIBITORS AND METHODS OF USE THEREOF” (Synlogic Operating Company, Inc., priority 2019, published 2022) come the findings set out here.

The subject of this assay is MC38 tumors. As to the kind of experiment: MC38 tumor growth and survival, oral L-arginine with or without αPD-L1. The format is in vivo, C57BL/6 WT mice. Particulars: s.c. MC38; L-arginine 2 g/kg oral gavage daily; αPD-L1 200 μg i.p. every second day; compared to control group. On the procedure:
FIGS. 1A, 1B, and 1C: 5×10^5 MC38 colon adenocarcinoma cells were injected s.c. in C57BL/6 WT mice and tumors were allowed to grow for 11 days before treatments were initiated. Control mice (n=13) received daily an oral gavage of H2O (100 μl) and every second day 200 μl of PBS i.p. The L-arginine group received daily an oral gavage of L-arginine (2 g/kg body weight in 100 μl) (n=19). The PD-L1 group received 200 μg of αPD-L1 mAb i.p. every second day (n=16). The Combo group received L-arginine (oral) and αPD-L1 (i.p.) (n=17). FIG. 1A depicts in vivo MC38 tumor growth (number of mice are indicated in the graph). Values represent mean tumor volume +/− SEM. FIG. 1C: Survival curves of different groups of mice. P values were determined by log-rank comparisons between the curves. FIG. 1B provide tumor growth curves of individual mice. P values were determined by two way ANOVA. *P<0.05, **P<0.01, ***P<0.001, ****P<0.0001, throughout.
MC38 murine colon adenocarcinoma cells were cultured in RPMI 1640 plus 10% heat-inactivated FCS, 1 mM Na-Pyruvate and 50 μM β-mercaptoethanol. Female C57BL/6 mice between the ages of 5 to 10 weeks were implanted with the MC38 cells. […] The size of tumors was measured in a blinded fashion using calipers. […] Tumors were collected, digested and tumor-infiltrating lymphocytes (TILs) were analyzed by flow cytometry.

Regarding `N=C(N)NCCC[C@H](N)C(=O)O` [L-arginine], the MC38 tumor growth result is “slightly reduced”.
